Test results from US9029389B2 (Institut Pasteur Korea, priority 2011, dated 2015).

These compounds were tested against T1, Human 5-lipoxygenase (Homo sapiens, UniProt P09917) (assay: Activity of compounds against 5-LO enzyme (LTB4 measurement and/or fluorescence method)). Conditions: 5-LO, single concentration of 10 uM in duplicate.
T1 construct: purchased Cayman 60402; host or cells: insect cells
T1 sequence (P09917 1-674): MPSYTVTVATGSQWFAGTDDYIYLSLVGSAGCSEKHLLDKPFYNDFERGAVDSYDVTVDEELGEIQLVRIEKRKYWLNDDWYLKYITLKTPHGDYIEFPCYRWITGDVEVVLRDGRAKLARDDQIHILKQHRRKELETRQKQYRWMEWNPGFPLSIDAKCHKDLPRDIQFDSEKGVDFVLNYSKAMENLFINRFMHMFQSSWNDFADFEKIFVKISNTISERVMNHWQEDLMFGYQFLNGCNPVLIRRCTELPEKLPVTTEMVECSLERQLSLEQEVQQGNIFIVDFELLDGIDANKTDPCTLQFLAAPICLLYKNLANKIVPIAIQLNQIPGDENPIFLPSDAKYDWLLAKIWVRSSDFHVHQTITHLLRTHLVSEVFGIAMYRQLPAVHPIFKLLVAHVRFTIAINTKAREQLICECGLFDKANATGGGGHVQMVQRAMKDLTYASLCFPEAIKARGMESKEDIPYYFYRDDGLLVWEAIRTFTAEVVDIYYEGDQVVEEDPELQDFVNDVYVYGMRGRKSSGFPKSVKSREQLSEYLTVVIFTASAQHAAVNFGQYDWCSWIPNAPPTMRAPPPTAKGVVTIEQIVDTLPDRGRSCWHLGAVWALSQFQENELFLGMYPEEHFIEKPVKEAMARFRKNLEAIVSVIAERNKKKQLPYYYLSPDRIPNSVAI
Assay type: biochemical
Summary of the method: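 Two read-outs: LTB4 measured by EIA and/or LC/MS/MS with LTB4-d4 standard after 15 min RT compound preincubation with insect-cell 5-LO and a 5 min 37 °C reaction on 3 uM arachidonic acid (0.1 mM ATP, pH 7.4). The room-temperature fluorescence format used 20 uM H2DCFDA, 100 uM ATP, 3 uM arachidonic acid, 5 min; IC50 from 6/11-point curves.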

Row | SMILES | inhibition at 10 µM [%]
1 | CCc1nc2c(OC)cccn2c1C(=O)NCc1ccc(N2CCN(c3ccc(F)cc3)CC2)cc1 [compound 263, 2-Ethyl-N-(4-(4-(4-fluorophenyl)piperazin-1-yl)benzyl)-8-methoxyimidazo[1,2-a]pyridine-3-carboxamide] | 40 to 69
2 | CCc1nc2cc(Cl)ccn2c1NC(=O)Cc1ccc(-c2ccccc2)cc1 [compound 116, 2-(Biphenyl-4-yl)-N-(7-chloro-2-ethylimidazo[1,2-a]pyridin-3-yl)acetamide] | 40 to 69
3 | Cc1nc2c(O)cccn2c1C(=O)NCc1ccccc1 [compound 48, N-Benzyl-8-hydroxy-2-methylimidazo[1,2-a]pyridine-3-carboxamide] | < 40
4 | CCc1nc2ccc(C(F)(F)F)cn2c1C(=O)NCc1ccc(OC(F)(F)F)cc1 [compound 121, 2-Ethyl-N-(4-(trifluoromethoxy)benzyl)-6-(trifluoromethyl)imidazo[1,2-a]pyridine-3-carboxamide] | 40 to 69
5 | CCc1nc2cc(Br)ccn2c1C(=O)NCc1ccc(OC(F)(F)F)cc1 [compound 281, 7-Bromo-2-ethyl-N-(4-(trifluoromethoxy)benzyl)imidazo[1,2-a]pyridine-3-carboxamide] | 40 to 69
6 | CCc1nc2ccc(Cl)cn2c1C(=O)NCc1ccc2oc(-c3ccc(F)cc3)nc2c1 [compound 258, 6-Chloro-2-ethyl-N-((2-(4-fluorophenyl)benzo[d]oxazol-5-yl)methyl)imidazo[1,2-a]pyridine-3-carboxamide] | < 40
7 | COc1ccc(CNC(=O)c2c(C)nc3ccccn23)cc1 [compound 7, N-(4-Methoxybenzyl)-2-methylimidazo[1,2-a]pyridine-3-carboxamide] | < 40
8 | COc1ccc(CCNC(=O)c2c(C)nc3ccccn23)cc1 [compound 8, N-(4-Methoxyphenethyl)-2-methylimidazo[1,2-a]pyridine-3-carboxamide] | < 40
9 | CCc1nc2cc(Cl)ccn2c1C(=O)NCc1ccc(Oc2ccc(F)cc2)cc1 [compound 129, 7-Chloro-2-ethyl-N-(4-(4-fluorophenoxy)benzyl)imidazo[1,2-a]pyridine-3-carboxamide] | 40 to 69
10 | CCc1nc2ccc(Cl)cn2c1C(=O)NCc1ccc2ccccc2c1 [compound 79, 6-Chloro-2-ethyl-N-(naphthalen-2-ylmethyl)imidazo[1,2-a]pyridine-3-carboxamide] | < 40
11 | Cc1nc2ccccn2c1C(=O)NCC1CCNCC1 [compound 24, 2-Methyl-N-(piperidin-4-ylmethyl)imidazo[1,2-a]pyridine-3-carboxamide] | < 40
12 | CCc1nc2ccc(Cl)cn2c1C(=O)NCc1ccc(C2CCN(C(=O)c3ccc(F)cc3)CC2)cc1 [compound 326, 6-chloro-2-ethyl-N-(4-(1-(4-fluorobenzoyl)piperidin-4-yl)benzyl)imidazo[1,2-a]pyridine-3-carboxamide] | < 40
13 | CCc1nc2ccc(Cl)cn2c1C(=O)NCc1ccc(/C=C/c2ccc(F)cc2)cc1 [compound 329, (E)-6-chloro-2-ethyl-N-(4-(4-fluorostyryl)benzyl)imidazo[1,2-a]pyridine-3-carboxamide] | < 40
14 | CCc1nc2ccccn2c1C(=O)NCc1ccc2c(ccn2C)c1 [compound 50, 2-Ethyl-N-((1-methyl-1H-indol-5-yl)methyl)imidazo[1,2-a]pyridine-3-carboxamide] | < 40
15 | CCc1nc2cnccn2c1C(=O)NCc1ccc(-c2ccc(Cl)cc2)cc1 [compound 71, N-((4′-Chlorobiphenyl-4-yl)methyl)-2-ethylimidazo[1,2-a]pyrazine-3-carboxamide] | < 40
16 | CCc1nc2ccc(Cl)cn2c1CN1CCC(OCc2ccc(OC(F)(F)F)cc2)CC1 [compound 347, 6-chloro-2-ethyl-3-((4-((4-(trifluoromethoxy)benzyl)oxy)piperidin-1-yl)methyl)imidazo[1,2-a]pyridine] | > 69
17 | Cc1nc2c(F)cccn2c1C(=O)NCc1ccccc1 [compound 35, N-Benzyl-8-fluoro-2-methylimidazo[1,2-a]pyridine-3-carboxamide] | < 40
18 | CCc1nc2c(Br)cccn2c1C(=O)NCc1ccc(N2CCN(c3ccc(F)cc3)CC2)cc1 [compound 260, 8-Bromo-2-ethyl-N-(4-(4-(4-fluorophenyl)piperazin-1-yl)benzyl)imidazo[1,2-a]pyridine-3-carboxamide] | > 69
19 | CCc1nc2ccc(C)cn2c1C(=O)NCc1ccc2ccn(C)c2c1 [compound 60, 2-Ethyl-6-methyl-N-((1-methyl-1H-indol-6-yl)methyl)imidazo[1,2-a]pyridine-3-carboxamide] | 40 to 69
20 | CCc1nc2cc(Cl)ccn2c1C(=O)NCc1ccn(-c2ccc(C(F)(F)F)cc2)n1 [compound 152, 7-Chloro-2-ethyl-N-((1-(4-(trifluoromethyl)phenyl)-1H-pyrazol-3-yl)methyl)imidazo[1,2-a]pyridine-3-carboxamide] | 40 to 69
21 | Cc1ccn2c(C(=O)NCc3ccccc3)c(C)nc2c1 [compound 32, N-Benzyl-2,7-dimethylimidazo[1,2-a]pyridine-3-carboxamide] | < 40

Second part, the compound after the results:

Row | inhibition at 10 µM [%] | SMILES
22 | 40 to 69 | CCc1nc2cc(Cl)ccn2c1C(=O)NCc1ccc(-c2ccccc2)cc1 [compound 91, N-(Biphenyl-4-ylmethyl)-7-chloro-2-ethylimidazo[1,2-a]pyridine-3-carboxamide]
23 | < 40 | CCc1nc2ccc(Cl)cn2c1C(=O)NCc1ccc(N2CCC(C(=O)N(C)C)CC2)cc1 [compound 293, 6-Chloro-N-(4-(4-(dimethylcarbamoyl)piperidin-1-yl)benzyl)-2-ethylimidazo[1,2-a]pyridine-3-carboxamide]
24 | 40 to 69 | CCc1nc2cc(Cl)ccn2c1C(=O)NCc1ccc(Cl)cc1 [compound 84, 7-Chloro-N-(4-chlorobenzyl)-2-ethylimidazo[1,2-a]pyridine-3-carboxamide]
25 | < 40 | CCc1nc2ccc(Cl)cn2c1C(=O)NCc1ccc(N2CCC(OCc3ccc(F)cc3)CC2)cc1 [compound 300, 6-Chloro-2-ethyl-N-(4-(4-(4-fluorobenzyloxy)piperidin-1-yl)benzyl)imidazo[1,2-a]pyridine-3-carboxamide]
26 | < 40 | CCc1nc2ccc(Cl)cn2c1C(=O)NCc1ccc(N2CCC(NC(=O)Cc3ccc(F)cc3)CC2)cc1 [compound 316, 6-chloro-2-ethyl-N-(4-(4-(2-(4-fluorophenyl)acetamido)piperidin-1-yl)benzyl)imidazo[1,2-a]pyridine-3-carboxamide]
27 | 40 to 69 | CCc1nc2cc(Cl)ccn2c1C(=O)NCc1ccc(Br)cc1 [compound 96, N-(4-Bromobenzyl)-7-chloro-2-ethylimidazo[1,2-a]pyridine-3-carboxamide]
28 | 40 to 69 | CCc1nc2cc(Cl)ccn2c1C(=O)NCc1ccc(N2CCC(Oc3ccc(Cl)cc3)CC2)cc1 [compound 167, 7-Chloro-N-(4-(4-(4-chlorophenoxy)piperidin-1-yl)benzyl)-2-ethylimidazo[1,2-a]pyridine-3-carboxamide]
29 | < 40 | CCc1nc2cc(Cl)ccn2c1C(=O)NCc1ccc(N2CCC(COC(C)C)CC2)cc1 [compound 277, 7-Chloro-2-ethyl-N-(4-(4-(isopropoxymethyl)piperidin-1-yl)benzyl)imidazo[1,2-a]pyridine-3-carboxamide]
30 | 40 to 69 | CCc1nc2cc(Cl)ccn2c1C(=O)NCc1ccc(OCc2ccc(F)cc2)cc1 [compound 173, 7-Chloro-2-ethyl-N-(4-(4-fluorobenzyloxy)benzyl)imidazo[1,2-a]pyridine-3-carboxamide]
31 | 40 to 69 | CCc1nc2cc(Cl)ccn2c1C(=O)NCc1ccc(N2CCC(OCc3ccc(F)cc3)CC2)cc1 [compound 301, 7-Chloro-2-ethyl-N-(4-(4-(4-fluorobenzyloxy)piperidin-1-yl)benzyl)imidazo[1,2-a]pyridine-3-carboxamide]
32 | < 40 | CCc1nc2ccccn2c1C(=O)NCc1ccc(CC2CCOCC2)cc1 [compound 357, 2-ethyl-N-(4-((tetrahydro-2H-pyran-4-yl)methyl)benzyl)imidazo[1,2-a]pyridine-3-carboxamide]

Same assay, conditions: 6 or 11 point dose response in duplicate

Row | IC50 [µM] | SMILES
33 | > 20 | CCc1nc2ccc(Cl)cn2c1C(=O)N1CCC(OCc2ccccc2)CC1 [compound 330, (4-(benzyloxy)piperidin-1-yl)(6-chloro-2-ethylimidazo[1,2-a]pyridin-3-yl)methanone]
34 | > 20 | CCc1nc2c(Br)cccn2c1C(=O)NCc1ccc(N2CCN(c3ccc(F)cc3)CC2)cc1 [compound 260, 8-Bromo-2-ethyl-N-(4-(4-(4-fluorophenyl)piperazin-1-yl)benzyl)imidazo[1,2-a]pyridine-3-carboxamide]
35 | 1 to 20 | CCc1nc2ccc(Cl)cn2c1CNCc1ccc(N2CCN(c3ccc(F)cc3)CC2)cc1 [compound 381, 1-(6-chloro-2-ethylimidazo[1,2-a]pyridin-3-yl)-N-(4-(4-(4-fluorophenyl)piperazin-1-yl)benzyl)methanamine]
